From ChEMBL document CHEMBL1140326, “Dicarboxylic acid azacycle l-prolyl-pyrrolidine amides as prolyl oligopeptidase inhibitors and three-dimensional quantitative structure-activity relationship of the enzyme-inhibitor interactions” (J Med Chem, 2005) come the findings set out here.

The target of the test is Prolyl endopeptidase (Sus scrofa, UniProt P23687). In words: In vitro inhibitory activity against porcine prolyl oligopeptidase by using 4 mM Suc-Gly-Pro-7-amido-4-methylcoumarin as substrate (pH 7.0) at 30 degree C for 60 min.
Chain of Prolyl endopeptidase (P23687 whole entry): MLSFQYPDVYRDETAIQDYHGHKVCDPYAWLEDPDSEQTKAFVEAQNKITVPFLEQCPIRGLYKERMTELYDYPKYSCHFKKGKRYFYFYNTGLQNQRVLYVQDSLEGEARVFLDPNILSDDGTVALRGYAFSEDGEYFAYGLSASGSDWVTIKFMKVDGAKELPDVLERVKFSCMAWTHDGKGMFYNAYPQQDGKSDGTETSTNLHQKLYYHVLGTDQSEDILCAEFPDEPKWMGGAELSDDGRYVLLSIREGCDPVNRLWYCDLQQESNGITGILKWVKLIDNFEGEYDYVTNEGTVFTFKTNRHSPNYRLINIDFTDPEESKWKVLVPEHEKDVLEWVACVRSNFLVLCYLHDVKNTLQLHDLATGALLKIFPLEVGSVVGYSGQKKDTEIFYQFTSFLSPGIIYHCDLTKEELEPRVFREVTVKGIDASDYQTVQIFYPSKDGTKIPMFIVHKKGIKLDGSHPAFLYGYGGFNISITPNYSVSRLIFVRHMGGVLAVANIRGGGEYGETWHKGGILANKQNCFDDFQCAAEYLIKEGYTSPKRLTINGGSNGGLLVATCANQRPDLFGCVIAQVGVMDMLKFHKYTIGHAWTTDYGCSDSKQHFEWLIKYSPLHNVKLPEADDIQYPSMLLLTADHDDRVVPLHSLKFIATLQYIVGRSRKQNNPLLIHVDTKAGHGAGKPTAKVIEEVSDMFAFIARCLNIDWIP
For orientation: IC50 means the concentration that gives 50% inhibition. A lower IC50 goes with inhibition by little substance. In turn, `O=C(NCc1ccccc1)[C@@H]1CCCN1C(=O)c1cccc(C(=O)N2CCC[C@H]2C(=O)N2CCCC2)c1` returned a half-maximal inhibitory concentration (IC50) of 31 nM.

In turn, `O=C(c1ccccc1)[C@@H]1CCCN1C(=O)c1cccc(C(=O)N2CCC[C@H]2C(=O)N2CCCC2)c1` came in with an IC50 of 18 nM.

On to `CC(=O)[C@@H]1CCCN1C(=O)c1cccc(C(=O)N2CCC[C@H]2C(=O)N2CCC[C@H]2C#N)c1`, for which it took 4.2 nM to reach half-maximal inhibition (IC50).

`O=C(CO)[C@@H]1CCCN1C(=O)[C@@H]1CCCN1C(=O)c1cccc(C(=O)N2CCC[C@H]2C(=O)C2CCCC2)c1` returned an IC50 of 0.61 nM.

`O=C([C@@H]1CCCN1C(=O)c1ccc(C(=O)N2CCC[C@H]2C(=O)N2CCCC2)cc1)N1CCCC1` came in with an IC50 of 81 nM.

With `O=C([C@@H]1CCCN1C(=O)c1cccc(C(=O)N2CCC[C@H]2C(=O)N2CCCC2)c1)N1CCCCCC1`, the IC50 was found to be 23 nM.

Molecule `CC(C)C(=O)[C@@H]1CCCN1C(=O)c1cccc(C(=O)N2CCC[C@H]2C(=O)N2CCC[C@H]2C#N)c1` returned an IC50 of 1.6 nM.

In the case of `O=C(CCC(=O)N1CCC[C@H]1C(=O)N1CCCC1)N1CCCC1`, the IC50 was 110 nM.

`N#C[C@@H]1CCCN1C(=O)[C@@H]1CCCN1C(=O)c1cccc(C(=O)N2CCCCCC2)c1` had an IC50 of 4.6 nM.

`N#C[C@@H]1CCCN1C(=O)[C@@H]1CCCN1C(=O)CCCC(=O)N1CCCCCC1` showed an IC50 of 1.2 nM.

`CC(=O)[C@@H]1CCCN1C(=O)c1cccc(C(=O)N2CCC[C@H]2C(=O)N2CCC[C@H]2C(=O)CO)c1` had an IC50 of 1.2 nM.

`N#C[C@@H]1CCCN1C(=O)[C@@H]1CCCN1C(=O)c1ccccc1C(=O)N1CCCC1` registered an IC50 of 1500 nM.

For the molecule `O=C([C@@H]1CCCN1C(=O)CCCCC(=O)N1CCC[C@H]1C(=O)N1CCCC1)N1CCCC1`, the IC50 worked out at 68 nM.

Take `N#C[C@@H]1CCCN1C(=O)[C@@H]1CCCN1C(=O)CCC(=O)N1CCCCCC1`: the IC50 turned out to be 0.76 nM.

`O=C(CCC(=O)N1CCC[C@H]1C(=O)N1CCCC1)N1CCCCCC1` had an IC50 of 41 nM.

`N#C[C@@H]1CCCN1C(=O)[C@@H]1CCCN1C(=O)c1cccc(C(=O)N2CCCC2)c1` gave an IC50 of 6.9 nM.

On to `N#C[C@@H]1CCCN1C(=O)[C@@H]1CCCN1C(=O)c1cccc(C(=O)N2CCC[C@H]2C(=O)C2CCCC2)c1`, for which the IC50 came out at 1.1 nM.

The molecule `O=C(C1CCCC1)[C@@H]1CCCN1C(=O)c1cccc(C(=O)N2CCC[C@H]2C(=O)N2CCCC2)c1` registered an IC50 of 14 nM.

`CC(C)(C)OC(=O)N1CCN(C(=O)[C@@H]2CCCN2C(=O)c2cccc(C(=O)N3CCC[C@H]3C(=O)N3CCCC3)c2)CC1` returned an IC50 of 170 nM.

As to `O=C(N[C@@H](Cc1ccccc1)C(=O)N1CCCC1)c1cccc(C(=O)N[C@@H](Cc2ccccc2)C(=O)N2CCCC2)c1`, the IC50 came out at 81 nM.

The molecule `O=C(CO)[C@@H]1CCCN1C(=O)[C@@H]1CCCN1C(=O)CCCc1ccccc1` came in with an IC50 of 0.22 nM.

For the molecule `N#C[C@@H]1CCCN1C(=O)[C@@H]1CCCN1C(=O)CCC(=O)N1CCCC1`, 2.9 nM corresponded to half-maximal inhibition (IC50).

As for `N#C[C@@H]1CCCN1C(=O)[C@@H]1CCCN1C(=O)c1ccccc1`, half-maximal inhibition (IC50) was put at 3.1 nM.

Take `N#C[C@@H]1CCCN1C(=O)[C@@H]1CCCN1C(=O)c1cccc(C(=O)N2CCC[C@H]2C(=O)C2CCCCC2)c1`: it took 0.72 nM to reach half-maximal inhibition (IC50).

Consider `O=C(CCC(=O)N1CCC[C@H]1C(=O)N1CCCC1)N1CCOCC1`, for which the midpoint of inhibition, the IC50, lay at 1200 nM.

For `N#C[C@@H]1CCCN1C(=O)[C@@H]1CCCN1C(=O)c1cccc(C(=O)N2CCC[C@H]2C(=O)c2ccccc2)c1`, the midpoint of inhibition, the IC50, lay at 1.3 nM.

In turn, `CC(=O)[C@@H]1CCCN1C(=O)c1cccc(C(=O)N2CCC[C@H]2C(=O)N2CCCC2)c1` showed an IC50 of 65 nM.

`CC(C)(CC(=O)N1CCCCCC1)CC(=O)N1CCC[C@H]1C(=O)N1CCC[C@H]1C#N` gave an IC50 of 0.39 nM.

Molecule `O=C([C@@H]1CCCN1C(=O)CCC(=O)N1CCC[C@H]1C(=O)N1CCCC1)N1CCCC1` registered an IC50 of 77 nM.

In turn, `N#C[C@@H]1CCCN1C(=O)[C@@H]1CCCN1C(=O)c1ccc(C(=O)N2CCCC2)cc1` returned a 50% inhibitory concentration (IC50) of 1.6 nM.

With `O=C(c1ccccc1C(=O)N1CCC[C@H]1C(=O)N1CCCC1)N1CCCC1`, the IC50 is 19000 nM.

For the molecule `O=C([C@@H]1CCCN1C(=O)c1cccc(C(=O)N2CCC[C@H]2C(=O)N2CCNCC2)c1)N1CCCC1`, the IC50 was 33 nM.
